Measurements: patent US8492521B2, “Oxidative stress responsive apoptosis inducing protein eIF5A” (priority 2008, dated 2013)

Test system: rat myocardial ischemia/reperfusion injury
Assay: Rat myocardial ischemia/reperfusion injury, extent of myocardial infarction (TTC staining)
Assay type: in vivo
Conditions: 1 mg/kg everyday, peritoneal, five days to the day before; 30 min ischemia, 24 hours reperfusion; control group approx. 35.6%
Protocol: Rats (male, 250 to 280 g) were subjected to coronary artery ligation according to J. Pathol. 180, 305-310 (1996). Briefly, rats were anesthetized with sodium pentobarbital (40 mg Kg^−1, intraperitoneally), intubated, and ventilated with room air (tidal volume, 20 ml/Kg, […]) with a respirator (SN-480-7, Shinano Manufacturing Co., Ltd., Tokyo, Japan). After lateral thoracotomy and pericardiectomy, a 6-0 silk stitch was placed near the intramyocardial location of the left coronary artery beneath the left atrial appendage. Coronary artery occlusion was performed by pressing a short length of tube over the ends of the suture and clamping it firmly against the heart. Reperfusion was achieved by removing the clamp. The standard limb lead II electrocardiogram was monitored continuously. The ischemia and reperfusion of the regional myocardium were confirmed by following the changes of the ST segment level on the electrocardiogram and observing the change in the color of the myocardium.
eIF5A is deoxyhypusinated by deoxyhypusine synthase (DHS) in the cytoplasm (deoxyhypusine eIF5A) and then hypusinated by deoxyhypusine hydroxylase (DOHH) (hypusinated eIF5A). eIF5A is further secreted extracellularly by an oxidative stress stimulus as secreted eIF5A and acquire the apoptosis-inducing activity. […]

## N=C(N)NCCCCCCCN [GC7, N1-guanyl-1,7-diaminoheptane]
  extent of myocardial infarction: approx. 13.4%
